The values that follow come from patent US11173146B2, “Selective activators of the intermediate conductance CA2+activated K+ channel KCa3.1 and their methods of use” (The Regents of the University of California, priority 2014, dated 2021).

SMILES strings stand for the structures. Read-outs that look alike come from different tables or passages of the source.

Holding throughout (type): cell-based
In one test the target is T1, human KCa2.3 (Homo sapiens, UniProt Q9UGI6).
T1 construct: The cloning of hKCa2.3 (19 CAG repeats) and hKCa3.1 has been previously described (Wulff et al., 2000)
Description: Manual whole-cell patch-clamp KCa2.3 activation (COS-7). The source says: Cells, Cell lines and Clones. […] The cloning of hKCa2.3 (19 CAG repeats) and hKCa3.1 has been previously described (Wulff et al., 2000). The hKCa2.3 clone was later stably expressed in COS-7 cells at Aurora Biosciences Corp., San Diego, Calif. Cell lines stably expressing other mammalian ion channels were gifts from several sources: hKCa1.1 in HEK-293 cells (Andrew Tinker, University College London); hKV2.1 in HEK293 cells (James Trimmer, UC Davis); KV11.1 (HERG) in HEK-293 cells (Craig January, University of Wisconsin, Madison); hNaV1.4 in HEK-293 cells (Frank Lehmann-Horn, University of Ulm, Germany), hNaV1.5 in HEK-293 cells (Christopher Lossin, University of California Davis), and hCaV1.2 in HEK-293 cells (Franz Hofmann, Munich, Germany).
Electrophysiology. Experiments were conducted either manually with an EPC-10 amplifier (HEKA, Lambrecht/Pfalz, Germany) or on a QPatch-16 automated electrophysiology platform (Sophion Biosciences, Denmark). […] Patch pipettes were pulled from soda lime glass (micro-hematocrit tubes, Kimble Chase, Rochester, N.Y.) and had resistances of 2-3 MΩ. […] Free Ca^2+ concentrations were calculated with MaxChelator assuming a temperature of 25° C., a pH of 7.2 and an ionic strength of 160 mM. […] Na^+ aspartate Ringer was used as an external solution (in mM): 160 Na^+ aspartate, 4.5 KCl, 2 CaCl2, 1 MgCl2, 5 HEPES, pH 7.4, 290-310 mOsm. […] Reduction of both peak and tail current by the drug was determined. NaV1.7 currents were recorded with 30 ms pulses from −90 mV to −10 mV every 10 sec with a CsF-based pipette solution and normal Ringer as an external solution. CaV1.2 currents were elicited by 100-ms depolarizing pulses from −80 to 20 mV every 10 sec with a CsCl-based pipette solution and an external solution containing 30 mM BaCl2. Blockade of both Na^+ and Ca^2+ currents was determined as reduction of the current minimum.
For all electrophysiology experiments solutions of benzothiazoles and benzooxazoles were always freshly prepared from 1 mM or 10 mM stock solutions in DMSO during the experiment. The final DMSO concentration never exceeded 1%. For automated assays glass vial inserts (Sophion Biosciences, Denmark) were filled with 350-400 μL of compound solution and placed into the glass insert base plate for use in the QPatch assay right before starting the QPatch.
The compounds synthesized by these methods as well as five commercially available compounds were tested for their KCa2.3 and KCa3.1 activating activity using either manual or automated whole-cell patch-clamp. Our group previously described the establishment of a QPatch assay for KCa3.1 modulators. […] We here made use of this assay and determined EC50 values for KCa3.1 activation using HEK-293 cells stably expressing human KCa3.1. Activities on human KCa2.3 were determined by manual electrophysioiogy since we currently only have KCa2.3 available in COS-7 cells, which are difficult to handle on the QPatch.
Background: In patch-clamp work, channel activity is measured electrically.

The target of the next test is T2, hKCa1.1 (Homo sapiens, UniProt Q12791).
T2 construct: host or cells: HEK-293
Kind of test: KCa1.1 current modulation (QPatch).

A further test concerns the target T3, hNaV1.7 (Homo sapiens, UniProt Q15858).
T3 construct: host or cells: CHO (division arrested)
Description: NaV1.7 current inhibition (CHO cells).

T1 sequence (Q9UGI6 with tags, fused parts or gaps DUP76-80): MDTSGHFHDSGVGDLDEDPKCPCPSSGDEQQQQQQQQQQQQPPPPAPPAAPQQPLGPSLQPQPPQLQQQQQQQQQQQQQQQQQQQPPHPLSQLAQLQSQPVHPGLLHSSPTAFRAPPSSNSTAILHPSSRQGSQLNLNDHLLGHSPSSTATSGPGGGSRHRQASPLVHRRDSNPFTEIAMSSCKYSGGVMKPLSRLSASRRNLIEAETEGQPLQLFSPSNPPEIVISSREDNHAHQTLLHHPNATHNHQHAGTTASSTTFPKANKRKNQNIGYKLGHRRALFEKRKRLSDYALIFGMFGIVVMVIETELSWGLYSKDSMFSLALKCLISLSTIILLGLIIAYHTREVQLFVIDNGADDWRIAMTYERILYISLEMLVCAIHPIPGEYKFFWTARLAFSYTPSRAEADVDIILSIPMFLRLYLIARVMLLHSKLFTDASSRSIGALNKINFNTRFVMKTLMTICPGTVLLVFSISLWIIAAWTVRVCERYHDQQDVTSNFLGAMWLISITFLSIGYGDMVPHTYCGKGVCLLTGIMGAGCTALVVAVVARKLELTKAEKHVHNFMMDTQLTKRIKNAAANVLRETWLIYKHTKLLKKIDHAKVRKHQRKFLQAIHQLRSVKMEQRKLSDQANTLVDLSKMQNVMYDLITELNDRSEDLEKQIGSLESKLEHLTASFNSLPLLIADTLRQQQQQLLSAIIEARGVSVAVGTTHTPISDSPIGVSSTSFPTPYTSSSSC
T3 sequence (Q15858 whole entry): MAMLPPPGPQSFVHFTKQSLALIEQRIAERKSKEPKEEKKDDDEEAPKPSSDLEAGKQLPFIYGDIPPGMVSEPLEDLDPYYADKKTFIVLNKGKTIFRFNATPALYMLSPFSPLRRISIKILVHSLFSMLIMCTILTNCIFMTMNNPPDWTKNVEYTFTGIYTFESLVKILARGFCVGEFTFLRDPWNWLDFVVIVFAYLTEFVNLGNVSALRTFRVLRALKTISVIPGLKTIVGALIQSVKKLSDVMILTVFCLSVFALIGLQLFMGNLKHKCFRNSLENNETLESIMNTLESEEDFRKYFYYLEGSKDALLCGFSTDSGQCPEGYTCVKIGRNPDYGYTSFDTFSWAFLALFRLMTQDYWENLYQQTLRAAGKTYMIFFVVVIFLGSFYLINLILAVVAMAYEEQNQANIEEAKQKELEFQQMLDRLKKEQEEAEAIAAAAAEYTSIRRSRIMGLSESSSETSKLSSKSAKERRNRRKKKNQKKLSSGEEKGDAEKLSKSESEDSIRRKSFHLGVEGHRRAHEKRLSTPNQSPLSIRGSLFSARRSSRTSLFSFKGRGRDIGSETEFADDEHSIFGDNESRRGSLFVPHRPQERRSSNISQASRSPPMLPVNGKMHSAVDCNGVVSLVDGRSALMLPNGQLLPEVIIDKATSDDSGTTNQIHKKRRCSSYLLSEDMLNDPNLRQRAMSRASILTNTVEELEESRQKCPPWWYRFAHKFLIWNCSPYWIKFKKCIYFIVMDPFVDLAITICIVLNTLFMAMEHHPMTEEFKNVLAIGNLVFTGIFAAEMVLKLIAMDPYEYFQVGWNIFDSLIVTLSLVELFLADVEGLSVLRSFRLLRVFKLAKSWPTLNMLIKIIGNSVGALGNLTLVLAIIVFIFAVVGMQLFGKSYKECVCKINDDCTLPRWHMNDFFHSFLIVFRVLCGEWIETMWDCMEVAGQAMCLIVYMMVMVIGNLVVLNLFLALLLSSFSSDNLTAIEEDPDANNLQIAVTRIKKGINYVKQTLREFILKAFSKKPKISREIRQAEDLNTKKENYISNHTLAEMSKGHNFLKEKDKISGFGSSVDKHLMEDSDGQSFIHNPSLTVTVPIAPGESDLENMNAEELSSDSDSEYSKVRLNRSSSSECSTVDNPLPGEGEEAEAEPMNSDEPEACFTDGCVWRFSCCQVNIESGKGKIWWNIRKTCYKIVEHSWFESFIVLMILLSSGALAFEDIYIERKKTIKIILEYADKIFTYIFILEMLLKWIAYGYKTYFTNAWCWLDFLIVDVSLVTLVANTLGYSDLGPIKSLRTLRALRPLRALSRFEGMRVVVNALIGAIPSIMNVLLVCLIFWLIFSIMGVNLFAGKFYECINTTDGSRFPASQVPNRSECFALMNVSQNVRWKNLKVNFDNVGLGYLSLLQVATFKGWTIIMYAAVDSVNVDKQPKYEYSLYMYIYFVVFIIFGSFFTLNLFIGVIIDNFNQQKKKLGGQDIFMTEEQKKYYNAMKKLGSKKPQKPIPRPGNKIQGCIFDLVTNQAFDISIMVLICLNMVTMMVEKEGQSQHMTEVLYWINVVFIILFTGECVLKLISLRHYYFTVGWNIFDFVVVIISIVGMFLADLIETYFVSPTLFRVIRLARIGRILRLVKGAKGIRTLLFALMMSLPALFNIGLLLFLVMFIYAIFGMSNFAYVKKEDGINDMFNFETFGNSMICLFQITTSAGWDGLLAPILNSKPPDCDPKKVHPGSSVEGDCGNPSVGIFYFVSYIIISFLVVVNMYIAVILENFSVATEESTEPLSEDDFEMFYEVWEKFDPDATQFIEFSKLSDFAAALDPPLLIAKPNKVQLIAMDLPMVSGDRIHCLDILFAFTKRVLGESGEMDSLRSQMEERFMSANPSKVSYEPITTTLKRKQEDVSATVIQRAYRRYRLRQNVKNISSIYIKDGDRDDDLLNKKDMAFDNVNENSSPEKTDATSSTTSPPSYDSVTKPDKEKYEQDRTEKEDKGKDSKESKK
T2 sequence (Q12791 whole entry): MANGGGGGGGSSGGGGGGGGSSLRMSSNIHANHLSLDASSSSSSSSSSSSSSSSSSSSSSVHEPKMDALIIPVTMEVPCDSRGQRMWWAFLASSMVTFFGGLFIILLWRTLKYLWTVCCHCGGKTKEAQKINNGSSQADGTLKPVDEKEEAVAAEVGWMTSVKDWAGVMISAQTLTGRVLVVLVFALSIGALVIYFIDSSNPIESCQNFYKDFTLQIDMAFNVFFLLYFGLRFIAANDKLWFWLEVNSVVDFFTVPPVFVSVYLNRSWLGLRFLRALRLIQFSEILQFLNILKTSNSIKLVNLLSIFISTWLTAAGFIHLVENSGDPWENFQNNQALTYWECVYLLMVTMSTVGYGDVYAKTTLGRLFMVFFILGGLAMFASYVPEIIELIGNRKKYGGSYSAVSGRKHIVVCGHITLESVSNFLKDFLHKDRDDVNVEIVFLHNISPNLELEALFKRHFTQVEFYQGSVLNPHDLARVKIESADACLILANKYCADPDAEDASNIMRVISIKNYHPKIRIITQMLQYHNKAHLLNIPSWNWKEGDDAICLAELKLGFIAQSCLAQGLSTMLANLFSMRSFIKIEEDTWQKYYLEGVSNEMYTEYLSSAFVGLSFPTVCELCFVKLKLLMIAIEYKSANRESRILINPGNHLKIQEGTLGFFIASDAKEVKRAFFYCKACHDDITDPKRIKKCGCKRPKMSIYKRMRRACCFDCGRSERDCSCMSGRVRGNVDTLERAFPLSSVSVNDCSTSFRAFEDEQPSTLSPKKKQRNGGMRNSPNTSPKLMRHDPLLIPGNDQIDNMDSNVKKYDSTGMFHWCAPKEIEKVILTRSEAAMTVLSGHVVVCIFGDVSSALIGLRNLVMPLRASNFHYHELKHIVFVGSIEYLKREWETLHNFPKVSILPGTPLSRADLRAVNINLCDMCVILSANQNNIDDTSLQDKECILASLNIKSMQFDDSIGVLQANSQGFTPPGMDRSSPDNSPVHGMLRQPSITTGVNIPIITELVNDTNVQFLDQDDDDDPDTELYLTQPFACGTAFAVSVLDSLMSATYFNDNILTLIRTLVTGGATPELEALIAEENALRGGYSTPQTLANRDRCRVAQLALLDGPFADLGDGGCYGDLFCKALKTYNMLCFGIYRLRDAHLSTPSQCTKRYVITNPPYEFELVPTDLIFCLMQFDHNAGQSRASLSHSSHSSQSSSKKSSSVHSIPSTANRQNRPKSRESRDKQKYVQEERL

As usually defined, the EC50 is the concentration at which the effect is half-maximal. By inhibition is commonly meant the share of the control response that was lost under treatment. A higher inhibition goes with a response far below the control. For `Cc1cc2nc(N)oc2c2ccccc12` [SKA-121, 5-Methylnaphtho[2,1-d]oxazol-2-amine], the EC50 was 4.4 ± 2.3 µM at human KCa2.3 (250 nM free Ca2+; read-out: EC50 for KCa2.3 activation) and 4.4 ± 2.6 µM on human KCa2.3 (Table 1; 250 nM free Ca2+; read-out: KCa2.3 EC50). For the same compound, the “Hill coefficient nH, KCa2.3 concentration-response curve” value at human KCa2.3 (FIG. 4 legend) is given as 1.6. Also, the “KCa1.1 % of current” value at hKCa1.1 (at 50 μM) is listed as 115% of current at 50 μM (3). This compound came in with an inhibition at 50 µM against hNaV1.7 (at 50 μM) of 28.5 ± 1.8%.

Turning to `Cc1cc2sc(N)nc2c2ccccc12` [SKA-111, 5-methylnaphtho[1,2-d]thiazol-2-amine], at human KCa2.3 (read-out: EC50 for KCa2.3 activation; 250 nM free Ca2+), the EC50 worked out at 13.7 ± 6.9 µM. The “KCa1.1 % of current” value at hKCa1.1 (at 25 μM) is reported as 120% of current at 25 μM (3). This compound also registered an inhibition at 25 µM against hNaV1.7 (at 25 μM) of 27.5 ± 0.9%.
